Assay results taken from article PMC11876601 (Molecular Systems Biology, 2025).
Several values for one entry are separate records, joined by “and”; a condition that tells them apart may be missing. Equal values may be shown once. Read-outs that look alike come from different tables or passages of the source.

Legend:
PRKAG1 = system: PRKAG1; parameters: method as in Reinecke et al. (2023); conditions: PRKAG1, 5 cell line mix lysate, Kinobeads ε, ref Reinecke et al. (2023), cited from earlier work
PRKAA2 = system: PRKAA2; parameters: method as in Reinecke et al. (2023); conditions: PRKAA2, 5 cell line mix lysate, Kinobeads ε, ref Reinecke et al. (2023), cited from earlier work
TAOK3 = system: TAOK3; parameters: method as in Reinecke et al. (2023); conditions: TAOK3, 5 cell line mix lysate, Kinobeads ε, ref Reinecke et al. (2023), cited from earlier work
FGFR3;FGFR4 = system: FGFR3;FGFR4; parameters: method as in Reinecke et al. (2023); conditions: FGFR3;FGFR4, 5 cell line mix lysate, Kinobeads ε, ref Reinecke et al. (2023), cited from earlier work
PDO UME012 = assay: PDO viability assay (CellTiter-Glo, 72 h); type: cell-based, human; parameters: Curve bottom: scale not given here;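 as to Curve top: fraction of plate-wise median vehicle signal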
Method: (§1) Primary patient-derived PDAC organoid (PDO) experiments were performed in the laboratories of Prof. Maximilian Reichert (University Hospital of the TU Munich, Germany, PDO set 1: B250, B535, B678) and Prof. Jens T. Siveke (University Hospital Essen, Germany; PDO set 2: UME008, UME012, UME051, UME053, UME060, UME061). PDOs were generated from surgical resection, EUS-guided fine needle biopsy (EUS-FNB), or ascites (Appendix Table S2). Surgical specimens were first minced with a sterile scalpel and subsequently washed with Anti-Anti solution and washing medium (PDO set 1), or vice versa (PDO set 2; Appendix Table S3). Biopsy samples were directly washed with an Anti-Anti solution and washing medium. Samples were digested using 1 ml of digestion medium at 37 °C while shaking, and the enzymatic reaction was stopped by adding 15 ml of washing medium (Appendix Table S3). If samples of PDO set 1 were blood-stained, tissue pellets were first incubated with ACK lysing buffer/red blood cells lysis buffer (Thermo Fisher Scientific) for 5 min and then digested using TrypLE (Thermo Fisher Scientific). The reversed procedure was applied for blood-stained samples of PDO set 2. For PDO generation from ascites, the material was first spun down at 500 × g for 5 min. Then, washing medium was added and the suspension was centrifuged at 300 × g for 5 min. If the pellet was blood-stained, ACK lysis buffer was added and incubated at room temperature.
(§2) For viability assays in PDOs, confluent organoids were removed from medium, and Matrigel was dissolved by adding 200 μl (PDO set 1) or 2 ml (PDO set 2) of Cell Recovery Solution (Corning), and additionally 500 μl of DPBS (PDO set 1 only). Samples were transferred into a falcon and incubated on ice for 30 min, followed by centrifugation at 300 × g at 4 °C for 5 min (after adding 10 ml washing medium for PDO set 2). Subsequently, TrypLE Express Enzyme (Thermo Fisher) was added to cell pellets and incubated for 2 × 5 min at 37 °C. The enzymatic reaction was quenched by DPBS (PDO set 1) or washing medium (PDO set 2), and samples were washed by centrifugation at 300 × g at 4 °C for 5 min. Five hundred cells/well were seeded in 384-well plates (Corning) in 50 μl of PDO medium containing 10% Matrigel. To allow PDO generation, cells were incubated for 4 days at 37 °C and 5% CO2. […] Experiments were pipetted manually (PDO set 1) or automatically using a TECAN D300e Digital Dispenser (HP; PDO set 2). Treatments were performed in eight replicates, except for PDO PPES045 (quadruplicates). After 72 h, cell viability was measured using the CellTiter-Glo Luminescent Cell Viability Assay (Promega) diluted 1:5 in the final volume of the well. After 20 min of incubation at room temperature under gentle shaking, the acquisition was performed in the microplate reader VantaSTAR (BMG Labtech) using 3000 gain for the amplification measurement of a detected signal (PDO set 1) or the Spark Multimode microplate reader (TECAN) at 800 ms integration time (PDO set 2).

PDO UME051 = assay: PDO viability assay (CellTiter-Glo, 72 h); type: cell-based, human; parameters: Curve bottom: scale not given here;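 as to Curve top: fraction of plate-wise median vehicle signal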
Method: as §1, §2

[1] = PDO UME012, GEM + Elimusertib (ATRi) dose1, per replicate
[2] = PDO UME012, GEM + Elimusertib (ATRi) dose2, per replicate
[3] = PDO UME012, GEM + Elimusertib (ATRi) dose3, per replicate
[4] = PDO UME012, GEM alone, per replicate
[5] = PDO UME051, GEM + Elimusertib (ATRi) dose1, per replicate
[6] = PDO UME051, GEM + Elimusertib (ATRi) dose2, per replicate
[7] = PDO UME051, GEM + Elimusertib (ATRi) dose3, per replicate
[8] = PDO UME051, GEM alone, per replicate

SMILES: COc1cc(N2CCC(N3CCN(C)CC3)CC2)ccc1Nc1ncc(Cl)c(Nc2ccccc2P(C)(C)=O)n1 [Brigatinib]
- EC50 (PRKAG1): 559 nM
- pKDapp (PRKAG1): 6.45
- Kd (PRKAG1; read-out: KDapp): 354 nM
- EC50 (PRKAA2): 1160 nM
- pKDapp (PRKAA2): 6.28
- Kd (PRKAA2; read-out: KDapp): 527 nM
- EC50 (TAOK3): 690 nM
- pKDapp (TAOK3): 6.27
- Kd (TAOK3; read-out: KDapp): 534 nM
- EC50 (FGFR3;FGFR4): 617 nM
- pKDapp (FGFR3;FGFR4): 6.21
- Kd (FGFR3;FGFR4; read-out: KDapp): 617 nM

SMILES: Nc1ccn([C@@H]2O[C@H](CO)[C@@H](O)C2(F)F)c(=O)n1 [GEM, Gemcitabine]
- EC50 (PDO UME012; Homo sapiens, PDO UME012, GEM + Elimusertib (ATRi) dose1, mean of replicates, read-out: EC50 mean): 12.6 nM
- EC50 (PDO UME012; Homo sapiens, PDO UME012, GEM + Elimusertib (ATRi) dose1, per replicate, read-out: EC50): 11.3 nM
- EC50 (PDO UME012; Homo sapiens, PDO UME012, GEM + Elimusertib (ATRi) dose1, per replicate, read-out: pEC50 (converted)): 11.2 nM
- EC50 (PDO UME012; Homo sapiens, PDO UME012, GEM + Elimusertib (ATRi) dose2, mean of replicates, read-out: EC50 mean): 3.06 nM
- EC50 (PDO UME012; Homo sapiens, PDO UME012, GEM + Elimusertib (ATRi) dose2, per replicate, read-out: EC50): 3.37 nM
- EC50 (PDO UME012; Homo sapiens, PDO UME012, GEM + Elimusertib (ATRi) dose2, per replicate, read-out: pEC50 (converted)): 3.39 nM
- EC50 (PDO UME012; Homo sapiens, PDO UME012, GEM + Elimusertib (ATRi) dose3, mean of replicates, read-out: EC50 mean): 2.42 nM
- EC50 (PDO UME012; Homo sapiens, PDO UME012, GEM alone, mean of replicates, read-out: EC50 mean): 29.1 nM
- EC50 (PDO UME012; Homo sapiens, PDO UME012, GEM alone, read-out: EC50 mean): 29.1 nM
- Curve bottom (PDO UME012; [1]): 11.29 and 15.69 and 14.76 and 8.69
- Curve slope (PDO UME012; [1]): 0.09 and 0.08 and 0.07
- Curve top (PDO UME012; [1]): 1.40 and 1.29 and 1.32 and 1.45
- pEC50 (PDO UME012; [1]): 7.80 and 7.83 and 8.06
- EC50 (PDO UME012; PDO UME012, GEM + Elimusertib (ATRi) dose1, per replicate, read-out: EC50): 15.7 nM and 14.8 nM and 8.69 nM
- Curve bottom (PDO UME012; [2]): 3.37 and 3.54 and 2.28
- Curve slope (PDO UME012; [2]): 0.0214 and 0.0222 and 0.0167
- Curve top (PDO UME012; [2]): 1.13 and 1.28 and 1.51
- pEC50 (PDO UME012; [2]): 8.45 and 8.64
- EC50 (PDO UME012; PDO UME012, GEM + Elimusertib (ATRi) dose2, per replicate, read-out: EC50): 3.54 nM and 2.28 nM
- Curve bottom (PDO UME012; [3]): 3.57 and 1.25 and 2.45
- Curve slope (PDO UME012; [3]): 0.02 and 0.05 and 0.0372
- Curve top (PDO UME012; [3]): 1.09 and 0.99 and 1.02
- pEC50 (PDO UME012; [3]): 8.45 and 8.90 and 8.61
- EC50 (PDO UME012; PDO UME012, GEM + Elimusertib (ATRi) dose3, per replicate, read-out: EC50): 3.57 nM and 1.25 nM and 2.45 nM
- Curve slope (PDO UME012; [4]): 0.62 and 0.42 and 0.70 and 0.52
- Curve top (PDO UME012; [4]): 1.21 and 1.18 and 1.06 and 1.19
- pEC50 (PDO UME012; [4]): 8.15 and 7.29 and 7.52 and 7.56
- EC50 (PDO UME012; PDO UME012, GEM alone, per replicate, read-out: EC50): 7.11 nM and 51.3 nM and 30.5 nM and 27.6 nM
- EC50 (PDO UME051; Homo sapiens, PDO UME051, GEM + Elimusertib (ATRi) dose1, mean of replicates, read-out: EC50 mean): 34.9 nM
- EC50 (PDO UME051; Homo sapiens, PDO UME051, GEM + Elimusertib (ATRi) dose2, mean of replicates, read-out: EC50 mean): 15.3 nM
- EC50 (PDO UME051; Homo sapiens, PDO UME051, GEM + Elimusertib (ATRi) dose3, mean of replicates, read-out: EC50 mean): 8.3 nM
- EC50 (PDO UME051; Homo sapiens, PDO UME051, GEM alone, mean of replicates, read-out: EC50 mean): 33.8 nM
- EC50 (PDO UME051; Homo sapiens, PDO UME051, GEM alone, read-out: EC50 mean): 33.8 nM
- Curve bottom (PDO UME051; [5]): 61.54 and 16.58 and 29.10 and 61.40 and 25.59 and 36.68 and 21.39 and 27.20
- Curve slope (PDO UME051; [5]): 0.20 and 0.21 and 0.19 and 0.27 and 0.15 and 0.25 and 0.16
- Curve top (PDO UME051; [5]): 1.01 and 0.92 and 0.96 and 0.94 and 1.28 and 1.37
- pEC50 (PDO UME051; [5]): 7.21 and 7.78 and 7.54 and 7.59 and 7.44 and 7.67 and 7.57
- EC50 (PDO UME051; PDO UME051, GEM + Elimusertib (ATRi) dose1, per replicate, read-out: EC50): 61.5 nM and 16.6 nM and 29.1 nM and 61.4 nM and 25.6 nM and 36.7 nM and 21.4 nM and 27.2 nM
- Curve bottom (PDO UME051; [6]): 15.70 and 19.38 and 5.56 and 12.34 and 19.98 and 22.85 and 24.50 and 1.89
- Curve slope (PDO UME051; [6]): 0.23 and 0.20 and 0.22 and 0.26 and 0.21 and 0.14 and 0.30
- Curve top (PDO UME051; [6]): 1.02 and 0.95 and 0.89 and 1.03
- Curve bottom (PDO UME051; [7]): 6.82 and 3.16 and 19.99 and 13.79 and 5.24 and 6.23 and 5.82 and 5.38
- Curve slope (PDO UME051; [7]): 0.26 and 0.20 and 0.24 and 0.23 and 0.30 and 0.15 and 0.16
- Curve top (PDO UME051; [7]): 0.75 and 0.88 and 1.32 and 1.31 and 0.95 and 0.93
- pEC50 (PDO UME051; [7]): 8.17 and 8.50 and 7.70 and 7.86 and 8.28 and 8.21 and 8.24 and 8.27
- EC50 (PDO UME051; PDO UME051, GEM + Elimusertib (ATRi) dose3, per replicate, read-out: EC50): 6.82 nM and 3.16 nM and 20 nM and 13.8 nM and 5.24 nM and 6.23 nM and 5.82 nM and 5.38 nM
- Curve bottom (PDO UME051; [8]): 27.81 and 28.79 and 47.23 and 24.70 and 49.88 and 54.38 and 18.12 and 19.12
- Curve slope (PDO UME051; [8]): 0.26 and 0.29 and 0.22 and 0.35 and 0.23 and 0.21 and 0.27 and 0.19
- Curve top (PDO UME051; [8]): 1.27 and 0.99 and 0.93 and 0.97
- pEC50 (PDO UME051; [8]): 7.56 and 7.54 and 7.33 and 7.61 and 7.30 and 7.26 and 7.74 and 7.72
- EC50 (PDO UME051; PDO UME051, GEM alone, per replicate, read-out: EC50): 27.8 nM and 28.8 nM and 47.2 nM and 24.7 nM and 49.9 nM and 54.4 nM and 18.1 nM and 19.1 nM
